One may read the pIC50 as the IC50 on a negative log10 scale, so that one unit is a factor of ten. What is called inhibition is how much of the control response was suppressed.

Our source for the IC50 and inhibition values is US20240101572A1, “DIHYDROOXADIAZINONE COMPOUND AND PHARMACEUTICAL USE THEREOF” (Japan Tobacco Inc., priority 2022, published 2024).

In one test the target is full-length human PLD2 (Homo sapiens (Human), UniProt O14939). Kind of test: Evaluation of human PLD2 enzyme inhibitory activity (Amplex Red / choline oxidase fluorescence). It counts as biochemical. The essentials:
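Released choline was read by Amplex Red fluorescence coupled to choline oxidase and HRP after a 60 min room-temperature reaction. Substrate was diheptanoyl phosphatidylcholine, added as a 6 mmol/L solution, and enzyme was FLAG-tagged full-length human PLD2 from Expi293F, added as a 6 nmol/L solution. Buffer was 50 mM HEPES pH 7.5 with 5% final DMSO.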

A further test addresses full-length human PLD1 (Homo sapiens (Human), UniProt Q13393). Put plainly: Evaluation of human PLD1 enzyme inhibitory activity (Amplex Red / choline oxidase fluorescence). It counts as biochemical. The essentials:
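Fluorescence read-out couples choline to Amplex Red via choline oxidase and peroxidase after a 60 min room-temperature reaction. Enzyme: FLAG-tagged full-length human PLD1 from Expi293F cells, anti-FLAG purified; substrate diheptanoyl phosphatidylcholine; HEPES pH 7.5 assay buffer with 0.01% NP-40, 0.1% BSA, 5% DMSO final.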

[1] abbreviates: full-length human PLD2 enzyme, read-out: PLD2 IC50.
Where [2] appears, read: full-length human PLD1 enzyme, read-out: PLD1 IC50.

pIC50: −log10 of the molar value. Where two headings read alike, the source gives them in different places.

Chain of full-length human PLD1 (Q13393 other isoform, or with tags, fused parts or gaps): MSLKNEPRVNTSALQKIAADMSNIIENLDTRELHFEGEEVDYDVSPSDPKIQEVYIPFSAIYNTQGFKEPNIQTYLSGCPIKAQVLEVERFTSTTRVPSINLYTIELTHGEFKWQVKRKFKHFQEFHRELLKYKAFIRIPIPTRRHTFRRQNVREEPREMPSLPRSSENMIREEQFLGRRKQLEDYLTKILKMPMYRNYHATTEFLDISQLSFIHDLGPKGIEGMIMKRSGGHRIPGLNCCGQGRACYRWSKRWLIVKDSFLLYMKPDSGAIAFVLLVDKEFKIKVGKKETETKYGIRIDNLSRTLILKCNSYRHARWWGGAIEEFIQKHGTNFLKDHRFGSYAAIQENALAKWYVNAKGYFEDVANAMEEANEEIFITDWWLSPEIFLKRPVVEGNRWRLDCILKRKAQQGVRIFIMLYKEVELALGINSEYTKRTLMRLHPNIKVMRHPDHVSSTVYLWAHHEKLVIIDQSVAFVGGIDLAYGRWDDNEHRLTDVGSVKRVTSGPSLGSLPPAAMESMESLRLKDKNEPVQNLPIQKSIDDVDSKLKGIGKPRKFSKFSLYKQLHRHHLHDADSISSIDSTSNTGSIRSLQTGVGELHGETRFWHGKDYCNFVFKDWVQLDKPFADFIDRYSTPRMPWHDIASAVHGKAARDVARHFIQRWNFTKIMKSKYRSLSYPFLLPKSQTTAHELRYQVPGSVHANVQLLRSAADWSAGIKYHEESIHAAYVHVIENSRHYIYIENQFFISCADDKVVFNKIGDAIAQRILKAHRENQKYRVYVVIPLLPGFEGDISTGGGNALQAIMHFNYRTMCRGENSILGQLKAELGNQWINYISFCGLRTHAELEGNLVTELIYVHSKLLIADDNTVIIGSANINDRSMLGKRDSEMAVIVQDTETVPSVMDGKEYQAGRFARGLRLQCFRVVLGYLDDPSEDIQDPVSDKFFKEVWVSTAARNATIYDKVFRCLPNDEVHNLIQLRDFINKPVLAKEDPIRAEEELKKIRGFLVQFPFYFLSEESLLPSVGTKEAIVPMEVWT
Chain of full-length human PLD2 (O14939 whole entry): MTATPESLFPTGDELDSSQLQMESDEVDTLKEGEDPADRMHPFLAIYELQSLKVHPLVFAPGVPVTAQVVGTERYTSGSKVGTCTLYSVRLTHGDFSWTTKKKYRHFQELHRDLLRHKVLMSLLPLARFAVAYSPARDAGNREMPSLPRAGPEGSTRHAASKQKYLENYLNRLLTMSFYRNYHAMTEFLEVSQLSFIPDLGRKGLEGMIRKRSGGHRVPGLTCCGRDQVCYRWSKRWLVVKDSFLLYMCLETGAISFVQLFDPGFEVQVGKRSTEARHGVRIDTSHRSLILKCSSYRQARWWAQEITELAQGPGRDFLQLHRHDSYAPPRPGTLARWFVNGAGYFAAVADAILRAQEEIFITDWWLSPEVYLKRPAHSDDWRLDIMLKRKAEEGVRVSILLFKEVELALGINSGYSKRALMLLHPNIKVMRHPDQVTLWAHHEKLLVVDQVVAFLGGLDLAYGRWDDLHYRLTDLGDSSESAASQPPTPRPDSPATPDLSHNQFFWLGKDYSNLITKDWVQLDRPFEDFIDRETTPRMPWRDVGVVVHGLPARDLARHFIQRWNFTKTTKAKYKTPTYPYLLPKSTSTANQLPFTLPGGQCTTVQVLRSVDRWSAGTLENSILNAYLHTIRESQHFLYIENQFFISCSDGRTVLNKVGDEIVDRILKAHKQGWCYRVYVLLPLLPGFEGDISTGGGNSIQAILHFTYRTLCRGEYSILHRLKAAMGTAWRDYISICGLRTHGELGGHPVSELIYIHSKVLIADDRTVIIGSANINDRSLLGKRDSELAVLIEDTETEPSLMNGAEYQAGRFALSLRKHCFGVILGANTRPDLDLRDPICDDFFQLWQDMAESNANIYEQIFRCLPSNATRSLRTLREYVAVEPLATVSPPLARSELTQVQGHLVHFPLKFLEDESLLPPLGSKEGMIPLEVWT

As to `CNC(=O)C(=O)N[C@@H](C)C[C@H]1CC[C@]2(CC1)OC(=O)NN=C2c1cnc(N2CCOCC2)cc1Cl` [Example 242], the figures for the pIC50 at full-length human PLD2 (setting [1]) and at full-length human PLD1 (setting [2]) were more than 8.00 and 7.80, respectively.
For `COc1cc(C)c(C2=NNC(=O)O[C@]23CC[C@@H](C[C@H](C)NC(=O)c2cc(C)n[nH]2)CC3)cn1` [Example 160], in that order: 7.77 and 7.59.
For `COc1cc(C)c(C2=NNC(=O)O[C@]23CC[C@@H](C[C@H](C)NC(=O)N2CCc4ccccc4C2)CC3)cn1` [Example 236], the pIC50 at full-length human PLD2 (setting [1]) was more than 8.00; at full-length human PLD1 (setting [2]), 7.82.
Turning to `CNC(=O)C(=O)N[C@@H](C)CN1CCC2(CC1)OC(=O)NN=C2c1cc(C#N)ccc1Br` [Example 300], the negative logarithm of the IC50 (pIC50) is more than 8.00 on full-length human PLD2 (setting [1]) and 7.42 at full-length human PLD1 (setting [2]).
For `CNC(=O)C(=O)N[C@@H](C)C[C@H]1CC[C@]2(CC1)OC(=O)NN=C2c1ccccc1SC` [Example 74], in that order: more than 8.00 and more than 8.00.
`CNC(=O)C(=O)N[C@H](C)C[C@H]1CC[C@@]2(CC1)OC(=O)NN=C2c1cc(C#N)ccc1Br` [Example 2-150]: the inhibition at 10 µM at full-length human PLD2 (read-out: human PLD2 % inhibition at 10 μM) turned out to be 30%; at full-length human PLD2 (read-out: inhibition rate of PLD2 at 10 μM compound), 30%; on full-length human PLD1 (read-out: human PLD1 % inhibition at 10 μM), 25%; on full-length human PLD1 (read-out: inhibition rate of PLD1 at 10 μM compound), 25%.
In the case of `CNC(=O)N[C@@H](C)C[C@H]1CC[C@]2(CC1)OC(=O)NN=C2c1ccc(F)cc1I` [Example 183], the results for the pIC50 on full-length human PLD2 (setting [1]) and at full-length human PLD1 (setting [2]) were 6.97 and 7.38, respectively.
For `CNC(=O)C(=O)N[C@@H](C)C[C@H]1CC[C@]2(CC1)OC(=O)NN=C2c1ccc(S(C)(=O)=O)cc1Br` [Example 33], in that order: more than 8.00 and 7.60.
For `Cc1cc(C(=O)N[C@@H](C)CN2CC[C@]3(C[C@@H]2C)OC(=O)NN=C3c2ccc(C#N)cc2Cl)[nH]n1` [Example 281], in that order: 6.63 and 6.77.
For `Cc1cc(Br)ccc1C1=NNC(=O)O[C@]12CC[C@@H](C[C@H](C)NC(=O)C(=O)NC1CC1)CC2` [Example 209], in that order: 7.74 and 7.74.
As for `C[C@@H](C[C@H]1CC[C@]2(CC1)OC(=O)NN=C2c1ccc(F)cc1Br)NC(=O)[C@@H](C)O` [Example 28], the pIC50 on full-length human PLD2 (setting [1]) was 6.52; at full-length human PLD1 (setting [2]), 6.47.
On to `Cc1cc(C(=O)N[C@@H](C)CN2CCC3(CC2)OC(=O)NN=C3c2ccc(S(C)(=O)=O)cc2Cl)[nH]n1` [Example 128], for which the pIC50 was 7.22 on full-length human PLD2 (setting [1]) and 6.73 on full-length human PLD1 (setting [2]).
Consider `CNC(=O)C(=O)N[C@@H](C)C[C@H]1CC[C@]2(CC1)OC(=O)NN=C2c1cnc(N2CCC(F)(F)C2)cc1Cl` [Example 241], for which the negative-log IC50 (pIC50) was more than 8.00 on full-length human PLD2 (setting [1]) and 7.77 on full-length human PLD1 (setting [2]).
For `C[C@@H](CN1CCC2(CC1)OC(=O)NN=C2c1ccc(F)cc1Cl)NC(=O)c1cc(Cl)no1` [Example 92], in that order: 7.89 and 7.59.
For `Cc1cc(C(=O)N[C@@H](C)C[C@H]2CC[C@]3(CC2)OC(=O)NN=C3c2ccc(C(=O)O)cc2C)[nH]n1` [Example 201], the figures for the pIC50 on full-length human PLD2 (setting [1]) and at full-length human PLD1 (setting [2]) were 6.43 and 6.48, respectively.
For `CNC(=O)C(=O)N[C@@H](C)CN1CCC2(CC1)OC(=O)NN=C2c1cc(Br)c(F)cc1Cl` [Example 2-015], in that order: 7.92 and 7.59.
For `CNC(=O)C(=O)N[C@@H](C)C[C@H]1CC[C@]2(CC1)OC(=O)NN=C2c1cc(OCC(F)(F)F)ccc1Br` [Example 296], in that order: more than 8.00 and 7.89.
For `C[C@@H](C[C@]1(C#N)CC[C@@]2(CC1)OC(=O)NN=C2c1cc(C(F)(F)F)ccc1Br)NC(=O)c1cn(C)cn1` [Example 2-079], in that order: 8.00 and 7.96.
As to `C[C@@H](C[C@H]1CC[C@]2(CC1)OC(=O)NN=C2c1ccc(S(C)(=O)=O)cc1Br)NC(=O)c1ccccc1` [Example 49], the pIC50 on full-length human PLD2 (setting [1]) is 7.96; on full-length human PLD1 (setting [2]), 7.51.
For `C[C@@H](C[C@H]1CC[C@]2(CC1)OC(=O)NN=C2c1cc(C#N)ccc1Br)NC(=O)c1ccn(C)n1` [Example 2-070], in that order: 7.42 and 7.17.
For `C[C@@H](C[C@H]1CC[C@]2(CC1)OC(=O)NN=C2c1cc(C(C)(C)O)ccc1Br)NC(=O)C(=O)NC1CC1` [Example 2-045], in that order: more than 8.00 and 7.74.
For `[2H]C([2H])([2H])NC(=O)C(=O)N[C@@H](C)CN1CCC2(CC1)OC(=O)NN=C2c1cc(C#N)c(F)cc1Br` [Example 2-004], in that order: more than 8.00 and 7.17.
Turning to `Cc1cc(C(=O)N[C@@H](C)C[C@H]2CC[C@]3(CC2)OC(=O)NN=C3c2ccc(S(C)(=O)=O)cc2Br)[nH]n1` [Example 31], the pIC50 at full-length human PLD2 (setting [1]) is more than 8.00; at full-length human PLD1 (setting [2]) it was 7.62.
For `Cc1cc(C(=O)NC[C@@H](C)N2CCC3(CC2)OC(=O)NN=C3c2ccc(C#N)cc2Br)[nH]n1` [Example 332], in that order: 7.82 and 5.59.
Regarding `Cc1cc(C(=O)N[C@H](C)CN2CCC3(CC2)OC(=O)NN=C3c2ccc(F)cc2Br)[nH]n1` [Example 2-012], the negative-log IC50 (pIC50) at full-length human PLD2 (setting [1]) was 6.61; on full-length human PLD1 (setting [2]) it was 5.69.
As for `C[C@@H](C[C@H]1CC[C@]2(CC1)OC(=O)NN=C2c1cccc(C#N)c1Br)NC(=O)C(=O)NC1CC1` [Example 316], the values for the negative-log IC50 (pIC50) at full-length human PLD2 (setting [1]) and at full-length human PLD1 (setting [2]) were 7.21 and 7.34, respectively.
For `Cc1cc(C(=O)N[C@@H](C)C[C@H]2CC[C@]3(CC2)OC(=O)NN=C3c2cccc3c2OCC3)[nH]n1` [Example 107], in that order: 6.86 and 7.07.
For `Cc1cc(N2CCOCC2)ccc1C1=NNC(=O)O[C@]12CC[C@@H](C[C@H](C)NC(=O)N1CCOCC1)CC2` [Example 200], in that order: 7.09 and 6.99.
As to `CNC(=O)C(=O)N[C@@H](C)C[C@H]1CC[C@]2(CC1)OC(=O)NN=C2c1cccc(C)c1C` [Example 129], the negative-log IC50 (pIC50) at full-length human PLD2 (setting [1]) was more than 8.00; on full-length human PLD1 (setting [2]), 7.74.
Take `CC(C)S(=O)(=O)c1ccc(C2=NNC(=O)O[C@]23CC[C@@H](C[C@H](C)NC(=O)c2cc(Cl)no2)CC3)c(Br)c1` [Example 67]: the pIC50 on full-length human PLD2 (setting [1]) and on full-length human PLD1 (setting [2]) was more than 8.00 in each case.
Take `[2H]C([2H])([2H])NC(=O)C(=O)N[C@@H](C)C[C@H]1CC[C@]2(CC1)OC(=O)NN=C2c1cc(C#N)ccc1Br` [Example 2-073]: the pIC50 on full-length human PLD2 (setting [1]) was 8.70; at full-length human PLD1 (setting [2]) it was 7.85.
With `CNC(=O)C(=O)N[C@@H](C)C[C@H]1CC[C@]2(CC1)OC(=O)NN=C2c1ccc(OCC(F)(F)F)cc1Br` [Example 86], the figures for the pIC50 at full-length human PLD2 (setting [1]) and on full-length human PLD1 (setting [2]) were more than 8.00 and 7.89, respectively.
For `C[C@@H](C[C@H]1CC[C@]2(CC1)OC(=O)NN=C2c1cc(C#N)ccc1Br)NC(=O)C(=O)NC1CC1` [Example 292], in that order: more than 8.00 and 7.64.
For `Cc1cc(C(=O)N[C@@H](C)[C@H](C)N2CCC3(CC2)OC(=O)NN=C3c2ccc(F)cc2Br)[nH]n1` [Example 288], in that order: more than 8.00 and 7.59.
For `C[C@@H](C[C@H]1CC[C@]2(CC1)OC(=O)NN=C2c1ccc(C#N)cc1Br)NC(=O)c1cc(C2CC2)n[nH]1` [Example 2-072], in that order: 7.62 and 7.85.
As for `C[C@@H](C[C@H]1CC[C@]2(CC1)OC(=O)NN=C2c1ccccc1SC(F)(F)F)NC(=O)c1cnn(C)c1` [Example 2-020], the pIC50 is 7.80 at full-length human PLD2 (setting [1]) and 7.68 on full-length human PLD1 (setting [2]).
For `C[C@@H](CN1CCC2(CC1)OC(=O)NN=C2c1ccc(F)cc1Br)NC(=O)c1cnn(C)c1` [Example 254], in that order: more than 8.00 and 7.54.
For `C[C@@H](CC1CCC2(CC1)OC(=O)NN=C2c1ccncc1Br)NC(=O)c1cc2ccccc2o1` (mixture of isomers) [Example 122], in that order: more than 8.00 and more than 8.00.
For `Cc1cc(C(=O)N[C@@H](C)CN2CCC3(CC2)OC(=O)NN=C3c2ccc(C#N)cc2Br)[nH]n1` [Example 207], in that order: more than 8.00 and 7.60.
Regarding `[2H]C([2H])([2H])NC(=O)C(=O)N[C@@H](C)C[C@]1(C#N)CC[C@@]2(CC1)OC(=O)NN=C2c1cccc(F)c1Br` [Example 2-152], the negative logarithm of the IC50 (pIC50) is more than 8.00 at full-length human PLD2 (column 2 of continuation tables 2-12 to 2-14, read-out: human PLD2 enzyme inhibitory activity IC50) and 7.80 on full-length human PLD1 (column 1 of continuation tables 2-12 to 2-14, read-out: human PLD1 enzyme inhibitory activity IC50).
For `Cc1ncccc1C1=NNC(=O)O[C@]12CC[C@@H](C[C@H](C)NC(=O)c1cc(Cl)no1)CC2` [Example 103], the pIC50 at full-length human PLD2 (setting [1]) is 6.42; at full-length human PLD1 (setting [2]) it was 6.77.
For `Cc1cc(C(=O)N[C@@H](C)CN2CC[C@@]3(C[C@H]2C)OC(=O)NN=C3c2ccc(C#N)cc2Cl)[nH]n1` [Example 232], in that order: 5.67 and 5.59.
For `CC(=O)NCC(=O)N[C@@H](C)C[C@H]1CC[C@]2(CC1)OC(=O)NN=C2c1ccc(F)cc1Br` [Example 213], in that order: 6.94 and 7.07.
For `CNC(=O)C(=O)N[C@@H](C)C[C@H]1CC[C@]2(CC1)OC(=O)NN=C2c1cnc(N2C[C@H]3C[C@@H]2CO3)cc1Cl` [Example 243], in that order: more than 8.00 and 7.62.
